Experimental data: patent US12486273B2 (Hoffmann-La Roche Inc., priority 2019, dated 2025)

Legend:
hERG channel = hERG channel (Homo sapiens (Human), UniProt Q12809); assay: hERG channel inhibition assay; format: cell-based; conditions: patch-clamp; for IC50: CHO hERG cells; for IC20: human, CHO cells stably expressing hERG
Experimental: hERG Channel Inhibition Assay
The hERG K^+ channels were cloned in humans and stably expressed in a CHO (Chinese hamster ovary) cell line. CHOhERG cells were used for patch-clamp (voltage-clamp, whole-cell) experiments. Cells were stimulated by a voltage pattern to activate hERG channels and conduct IKhERG Currents (rapid delayed outward rectifier potassium current of the hERG channel). After the cells were stabilized for a few minutes, the amplitude and kinetics of IKhERG were recorded at a stimulation frequency of 0.1 Hz (6 bpm). Thereafter, the test compound was added to the preparation at increasing concentrations. For each concentration, an attempt was made to reach a steady-state effect, usually, this was achieved within 3-10 min at which time the next highest concentration was applied. The amplitude and kinetics of IKhERG are recorded in each concentration of the drug which were compared to the control values (taken as 100%). (references: Redfern WS, Carlsson L, Davis A S, Lynch W G, MacKenzie I, Palethorpe S, Siegl P K, Strang I, Sullivan A T, Wallis R, Camm A J, Hammond T G. 2003; Relationships between preclinical cardiac electrophysiology, clinical QT interval prolongation and torsade de pointes for a broad range of drugs: evidence for a provisional safety margin in drug development. Cardiovasc. Res. 58:32-45, Sanguinetti M C, Tristani-Firouzi M. 2006; hERG potassium channels and cardiac arrhythmia. Nature 440:463-469, Webster R, Leishman D, Walker D. 2002; Towards a drug concentration effect relationship for QT prolongation and torsades de pointes. Curr. Opin. Drug Discov. Devel. 5:116-26).

human TLR8 = human TLR8 (Homo sapiens (Human), UniProt Q9NR97); assay: HEK293-Blue-hTLR-8 cells assay; format: cell-based; conditions: HEK293-Blue-hTLR8 cells, R848 stimulation, 20 hrs, SEAP reporter; read-out: HEK/hTLR8 IC50
human TLR8, sequence (Q9NR97 27-1041): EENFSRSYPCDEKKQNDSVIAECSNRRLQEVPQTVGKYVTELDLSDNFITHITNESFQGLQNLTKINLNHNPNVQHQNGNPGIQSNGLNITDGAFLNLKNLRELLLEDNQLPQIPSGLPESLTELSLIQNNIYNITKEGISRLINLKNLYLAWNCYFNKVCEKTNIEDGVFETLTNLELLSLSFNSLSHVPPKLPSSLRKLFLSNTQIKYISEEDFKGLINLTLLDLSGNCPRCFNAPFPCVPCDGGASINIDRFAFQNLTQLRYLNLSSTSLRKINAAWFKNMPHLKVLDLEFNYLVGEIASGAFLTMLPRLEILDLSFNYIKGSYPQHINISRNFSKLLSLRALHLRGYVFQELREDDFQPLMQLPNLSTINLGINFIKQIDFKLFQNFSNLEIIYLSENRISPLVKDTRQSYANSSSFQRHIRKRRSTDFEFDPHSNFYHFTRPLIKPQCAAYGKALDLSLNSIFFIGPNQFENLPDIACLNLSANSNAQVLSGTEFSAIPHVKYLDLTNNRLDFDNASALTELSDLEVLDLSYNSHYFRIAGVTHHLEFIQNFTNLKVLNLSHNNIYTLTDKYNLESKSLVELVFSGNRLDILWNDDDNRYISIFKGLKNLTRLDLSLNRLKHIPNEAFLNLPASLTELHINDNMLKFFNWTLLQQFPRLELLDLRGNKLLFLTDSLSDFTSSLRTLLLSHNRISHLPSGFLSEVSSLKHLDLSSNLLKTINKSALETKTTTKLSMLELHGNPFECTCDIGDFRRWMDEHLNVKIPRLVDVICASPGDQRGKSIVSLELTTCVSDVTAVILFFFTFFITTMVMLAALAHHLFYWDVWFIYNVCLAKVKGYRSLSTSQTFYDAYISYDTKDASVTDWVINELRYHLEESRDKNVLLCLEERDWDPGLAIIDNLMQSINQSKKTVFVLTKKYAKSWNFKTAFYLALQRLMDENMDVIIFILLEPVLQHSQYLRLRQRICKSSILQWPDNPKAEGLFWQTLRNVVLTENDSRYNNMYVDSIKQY

hERG channel, sequence (Q12809 whole entry): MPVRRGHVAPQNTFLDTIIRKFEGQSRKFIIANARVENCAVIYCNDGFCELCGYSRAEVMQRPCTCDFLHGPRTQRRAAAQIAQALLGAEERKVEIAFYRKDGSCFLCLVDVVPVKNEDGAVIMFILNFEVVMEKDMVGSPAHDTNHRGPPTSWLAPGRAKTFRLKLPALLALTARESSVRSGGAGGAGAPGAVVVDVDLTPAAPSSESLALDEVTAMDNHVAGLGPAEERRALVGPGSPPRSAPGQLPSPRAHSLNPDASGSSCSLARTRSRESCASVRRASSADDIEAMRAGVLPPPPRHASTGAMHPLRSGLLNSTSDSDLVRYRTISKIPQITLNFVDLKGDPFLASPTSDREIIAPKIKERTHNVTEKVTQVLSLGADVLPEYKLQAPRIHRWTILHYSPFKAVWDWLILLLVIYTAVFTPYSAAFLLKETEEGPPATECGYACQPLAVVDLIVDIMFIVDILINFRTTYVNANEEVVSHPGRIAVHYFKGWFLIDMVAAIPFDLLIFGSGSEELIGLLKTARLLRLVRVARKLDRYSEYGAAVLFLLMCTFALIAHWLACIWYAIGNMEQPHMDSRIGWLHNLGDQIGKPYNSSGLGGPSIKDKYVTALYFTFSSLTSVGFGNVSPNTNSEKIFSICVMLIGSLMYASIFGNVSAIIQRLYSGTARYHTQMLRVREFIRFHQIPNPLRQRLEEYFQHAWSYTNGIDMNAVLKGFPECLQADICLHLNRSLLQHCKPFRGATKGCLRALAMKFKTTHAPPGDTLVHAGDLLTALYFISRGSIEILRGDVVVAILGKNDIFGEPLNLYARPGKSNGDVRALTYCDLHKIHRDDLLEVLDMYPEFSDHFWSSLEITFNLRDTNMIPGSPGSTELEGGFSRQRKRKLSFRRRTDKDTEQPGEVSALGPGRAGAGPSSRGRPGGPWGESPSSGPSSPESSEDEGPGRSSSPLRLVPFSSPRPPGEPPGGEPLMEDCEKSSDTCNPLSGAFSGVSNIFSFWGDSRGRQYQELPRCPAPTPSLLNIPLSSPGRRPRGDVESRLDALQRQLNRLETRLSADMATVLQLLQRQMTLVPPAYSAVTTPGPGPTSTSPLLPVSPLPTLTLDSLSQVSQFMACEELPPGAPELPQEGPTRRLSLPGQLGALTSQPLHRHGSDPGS

Row | Structure (SMILES) | IC50 (hERG channel) [µM] | IC20 (hERG channel) [µM] | IC50 (human TLR8) [µM]
1 | C[C@@H]1CN(c2ccc(C#N)c3ncccc23)C[C@@H]2C[C@@H](Nc3ccc4c(n3)CCNC4)CN21 [Example 1, 5-[(4R,7R,8aS)-4-methyl-7-(5,6,7,8-tetrahydro-1,6-naphthyridin-2-ylamino)-3,4,6,7,8,8a-hexahydro-1H-pyrrolo[1,2-a]pyrazin-2-yl]quinoline-8-carbonitrile] | > 20 | > 10 | 0.0134
2 | C[C@@H]1CN(c2ccc(C#N)c3ncccc23)C[C@@H]2C[C@@H](Nc3cc4c(cn3)CCNC4)CN21 [Example 2, 5-[(4R,7R,8aS)-4-methyl-7-(5,6,7,8-tetrahydro-2,6-naphthyridin-3-ylamino)-3,4,6,7,8,8a-hexahydro-1H-pyrrolo[1,2-a]pyrazin-2-yl]quinoline-8-carbonitrile] | > 20 | > 10 | 0.0125
3 | C[C@@H]1CN(c2ccc(C#N)c3ncccc23)C[C@@H]2C[C@@H](Nc3ccc4c(n3)CNCC4)CN21 [Example 3, 5-[(4R,7R,8aS)-4-methyl-7-(5,6,7,8-tetrahydro-1,7-naphthyridin-2-ylamino)-3,4,6,7,8,8a-hexahydro-1H-pyrrolo[1,2-a]pyrazin-2-yl]quinoline-8-carbonitrile] | > 20 | > 10 | 0.0184
4 | [2H]c1ccc2c(N3C[C@@H]4C[C@H](N5CCNCC5)CN4[C@H](C)C3)ccc(C#N)c2n1 [Example 15, 5-[(4R,7S,8aS)-4-methyl-7-piperazin-1-yl-3,4,6,7,8,8a-hexahydro-1H-pyrrolo[1,2-a]pyrazin-2-yl]-2-deuterio-quinoline-8-carbonitrile] | > 20 | > 10 | 0.0203
5 | [2H]c1ccc2c(N3C[C@@H]4C[C@H](N5CCC(N(C)C)CC5)CN4[C@H](C)C3)ccc(C#N)c2n1 [Example 20, 5-[(4R,7S,8aS)-7-[4-(dimethylamino)-1-piperidyl]-4-methyl-3,4,6,7,8,8a-hexahydro-1H-pyrrolo[1,2-a]pyrazin-2-yl]-2-deuterio-quinoline-8-carbonitrile] | > 20 | > 10 | 0.0183
